In PubChem BioAssay AID1963851 (Molecular Pharmacology Branch, DTP, NCI, 2024):

Test system: 188146-221-R-J1-PDC complex spheroid viability
Test: Anticancer human tumor 188146-221-R-J1-PDC patient-derived colon adenocarcinoma cell line growth inhibition [POLQ]
Conditions: for IC50: curve of first compound; for viability, T/C: stronger effect = lower value
Method: Multicellular complex tumor spheroid response to Polymerase (POL) inhibitors (novobiocin, ART-558, RP6685) in combination with a variety of drugs and investigational agents in selected tumor cell lines
The POL inhibitors (novobiocin, ART-558, and RP6685) were evaluated both individually and in combination with standard of care and investigational anticancer small molecules within a complex spheroid model of solid tumors. . Complex spheroids include a stromal component modeled by human endothelial cells (HUVEC) and fibroblasts modeled by human mesenchymal stem cells (MSCs). The concentration ranges selected for each drug and investigational agent were based upon clinically achievable concentrations if the clinical Cmax of the agent was known.
Compounds. The drugs and investigational agents: novobiocin (NSC847541), ART-558 (NSC835418), RP-6685 (NSC848927), peposertib (NSC802822), ceralasertib (NSC780249), elimusertib (NSC800525), camonsertib (NSC841442), AZD-1390 (NSC803789), olaparib (NSC753686), talazoparib (NSC767125), rucaparib (NSC756644), sotorasib (NSC818433), MRTX-1133 (NSC836407), SN-38 (NSC673596), topotecan (NSC609699), epotoside (NSC141540), doxorubicin (NSC123127), gemcitabine (NSC613327), 5-fluorouracil (NSC19893), paclitaxel (NSC125973), vemurafenib (NSC761431), MSA-2 (NSC828583), SN-011 (NSC837082), adavosertib (NSC754352), prexasertib (NSC758257), carboplatin (NSC241240) and oxaliplatin (NSC266046), were obtained from the National Cancer Institute (NCI) Developmental Therapeutics Program Chemical Repository (21). The FDA-approved anticancer drug set is available from the Developmental Therapeutics Program at https://dtp.cancer.gov/organization/dscb/obtaining/. […] The stock solutions were prepared in dimethyl sulfoxide (DMSO, Sigma-Aldrich, St. Louis, MO, cat. D2650), except for the platinum compounds which were prepared in saline (Quality Biological, Gaithersburg, MD, cat. 114-055-101), at 800-fold the tested concentration and stored at -70 degrees C prior to their use. All drugs and investigational agents were tested over a range starting from a high concentration at or near the clinical Cmax and decreasing in half-log increments. If the clinical Cmax for an agent had not been determined, the highest concentration tested was 10 microM, except for SN-38, which was tested at a high concentration of 1 microM.
Cell Culture. All cells were maintained in an incubator at 37 degrees C and 5% CO2 with 95% humidity. The PDC lines were cultured according to standard operating procedures established by the NCI PDMR (https://pdmr.cancer.gov). Table 3 of the manuscript, lists the cell lines along with the number of the three cell types plated to form the mct-spheroids and media for tumor cell growth. After thawing, all PDC lines, except 997537-175-T-J1-PDC and 415267-285-R-J2-PDC, were cultured in Matrigel-coated flasks prepared with a working solution of 1X Ham's F-12 nutrient mix, without supplementation (Thermo Fisher Scientific, cat. 11765054), 100 U/mL penicillin-streptomycin (Thermo Fisher Scientific, cat. 15140122), and 2.5% Matrigel (Corning Inc., Corning, NY, cat. 354248) for the first three passages. The two PDC lines 997537-175-T-J1-PDC and 415267-285-R-J2-PDC were cultured on uncoated flasks. The 857933-349-R-J2-PDC line was cultured in 6C/Colon 1B media containing advanced DMEM/F-12 (Thermo Fisher Scientific, cat. 12634028), 10 mM HEPES (Thermo Fisher Scientific, cat. 15630080), 1X GlutaMAX supplement (Thermo Fisher Scientific, cat. 35050061), 0.1 mg/mL primocin (InvivoGen, San Diego, CA, cat. ant-pm-2), 10% defined fetal bovine serum, heat inactivated (HyClone Laboratories Inc., Logan, UT, cat. SH30070.03HI), 50% L-WRN conditioned media (ATCC, cat. CRL-3276), 1.25 mM N-Acetyl-L-cysteine (Sigma-Aldrich, cat. A9165), 10 mM nicotinamide (Sigma-Aldrich, cat. N0636), 1X B-27 supplement (Thermo Fisher Scientific, cat. 17504044), 1X N-2 supplement (Thermo Fisher Scientific, cat. […]

[1] = second compound 0.0316 µM, first compound 0.00316 µM
[2] = second compound 0.0316 µM, first compound 0.01 µM
[3] = second compound 0.0316 µM, first compound 0.0316 µM
[4] = second compound 0.0316 µM, first compound 0.1 µM
[5] = second compound 0.0316 µM, first compound 0.316 µM
[6] = second compound 0.0316 µM, first compound 1 µM
[7] = second compound 0.1 µM, first compound 0.00316 µM
[8] = second compound 0.1 µM, first compound 0.01 µM
[9] = second compound 0.1 µM, first compound 0.0316 µM
[10] = second compound 0.1 µM, first compound 0.1 µM
[11] = second compound 0.1 µM, first compound 0.316 µM
[12] = second compound 0.1 µM, first compound 1 µM
[13] = second compound 0.316 µM, first compound 0.00316 µM
[14] = second compound 0.316 µM, first compound 0.01 µM
[15] = second compound 0.316 µM, first compound 0.0316 µM
[16] = second compound 0.316 µM, first compound 0.1 µM
[17] = second compound 0.316 µM, first compound 0.316 µM
[18] = second compound 0.316 µM, first compound 1 µM
[19] = second compound 1 µM, first compound 0.00316 µM
[20] = second compound 1 µM, first compound 0.01 µM
[21] = second compound 1 µM, first compound 0.0316 µM
[22] = second compound 1 µM, first compound 0.1 µM
[23] = second compound 1 µM, first compound 0.316 µM
[24] = second compound 1 µM, first compound 1 µM
[25] = second compound 3.16 µM, first compound 0.00316 µM
[26] = second compound 3.16 µM, first compound 0.01 µM
[27] = second compound 3.16 µM, first compound 0.0316 µM
[28] = second compound 3.16 µM, first compound 0.1 µM
[29] = second compound 3.16 µM, first compound 0.316 µM
[30] = second compound 3.16 µM, first compound 1 µM
[31] = second compound 10 µM, first compound 0.00316 µM
[32] = second compound 10 µM, first compound 0.01 µM
[33] = second compound 10 µM, first compound 0.0316 µM
[34] = second compound 10 µM, first compound 0.1 µM
[35] = second compound 10 µM, first compound 0.316 µM
[36] = second compound 10 µM, first compound 1 µM
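Further: spheroids exposed to compounds for seven days.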
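Wherever viability, T/C is given: 100% = DMSO vehicle control viability.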

## CCc1c2c(nc3ccc(O)cc13)-c1cc3c(c(=O)n1C2)COC(=O)[C@]3(O)CC + COC1C(OC(N)=O)C(O)C(Oc2ccc3c(O)c(NC(=O)c4ccc(O)c(CC=C(C)C)c4)c(=O)oc3c2C)OC1(C)C
Second compound 0.0316 µM
  IC50: 0.0259 µM
Second compound 0.1 µM
  IC50: 0.0268 µM
Second compound 0.316 µM
  IC50: 0.024 µM
Second compound 1 µM
  IC50: 0.027 µM
Second compound 3.16 µM
  IC50: 0.0211 µM
Second compound 10 µM
  IC50: 0.0132 µM
[1]
  viability, T/C: 96.6%
[2]
  viability, T/C: 83.1%
[3]
  viability, T/C: 41%
[4]
  viability, T/C: 20.6%
[5]
  viability, T/C: 10.8%
[6]
  viability, T/C: 7.12%
[7]
  viability, T/C: 95.7%
[8]
  viability, T/C: 88%
[9]
  viability, T/C: 42.5%
[10]
  viability, T/C: 16.8%
[11]
  viability, T/C: 8.86%
[12]
  viability, T/C: 6.83%
[13]
  viability, T/C: 87.1%
[14]
  viability, T/C: 88.6%
[15]
  viability, T/C: 38%
[16]
  viability, T/C: 14.2%
[17]
  viability, T/C: 9.57%
[18]
  viability, T/C: 7.85%
[19]
  viability, T/C: 93.5%
[20]
  viability, T/C: 91.2%
[21]
  viability, T/C: 42.9%
[22]
  viability, T/C: 16.6%
[23]
  viability, T/C: 11%
[24]
  viability, T/C: 7.07%
[25]
  viability, T/C: 94.3%
[26]
  viability, T/C: 79%
[27]
  viability, T/C: 34%
[28]
  viability, T/C: 13.3%
[29]
  viability, T/C: 10.9%
[30]
  viability, T/C: 6.97%
[31]
  viability, T/C: 95.5%
[32]
  viability, T/C: 56.7%
[33]
  viability, T/C: 28.6%
[34]
  viability, T/C: 14.9%
[35]
  viability, T/C: 9.1%
[36]
  viability, T/C: 9.35%

## COc1cccc(OCCCN)c1-c1cc(Nc2cnc(C#N)cn2)n[nH]1 + COC1C(OC(N)=O)C(O)C(Oc2ccc3c(O)c(NC(=O)c4ccc(O)c(CC=C(C)C)c4)c(=O)oc3c2C)OC1(C)C
Second compound 0.0316 µM
  IC50: 0.0287 µM
Second compound 0.1 µM
  IC50: 0.035 µM
Second compound 0.316 µM
  IC50: 0.0394 µM
Second compound 1 µM
  IC50: 0.0305 µM
Second compound 3.16 µM
  IC50: 0.0276 µM
Second compound 10 µM
  IC50: 0.0222 µM
[1]
  viability, T/C: 105%
[2]
  viability, T/C: 77.3%
[3]
  viability, T/C: 51.3%
[4]
  viability, T/C: 20.1%
[5]
  viability, T/C: 13%
[6]
  viability, T/C: 10.6%
[7]
  viability, T/C: 107%
[8]
  viability, T/C: 96.6%
[9]
  viability, T/C: 51.9%
[10]
  viability, T/C: 20.7%
[11]
  viability, T/C: 12.7%
[12]
  viability, T/C: 9.49%
[13]
  viability, T/C: 97%
[14]
  viability, T/C: 80.6%
[15]
  viability, T/C: 60.2%
[16]
  viability, T/C: 18%
[17]
  viability, T/C: 10.6%
[18]
  viability, T/C: 9.85%
[19]
  viability, T/C: 106%
[20]
  viability, T/C: 90.1%
[21]
  viability, T/C: 47.6%
[22]
  viability, T/C: 21%
[23]
  viability, T/C: 12%
[24]
  viability, T/C: 9.09%
[25]
  viability, T/C: 89.5%
[26]
  viability, T/C: 79.8%
[27]
  viability, T/C: 45.8%
[28]
  viability, T/C: 18.4%
[29]
  viability, T/C: 12.5%
[30]
  viability, T/C: 9.13%
[31]
  viability, T/C: 103%
[32]
  viability, T/C: 83.1%
[33]
  viability, T/C: 35.1%
[34]
  viability, T/C: 15.2%
[35]
  viability, T/C: 11.4%
[36]
  viability, T/C: 9.97%
